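Where inhibition never reached the appropriate level, the endpoint shown equals the highest concentration tested. Otherwise, values were interpolated linearly from a five-concentration, 48-hour dose response in 96-well plates. Abbreviation: GI50, concentration required for 50% inhibition of growth. At the TGI there is no net growth.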
Experiments:
Experiment in all cases: NCI-60 cell line screen, 48 h
786-0 renal = test system: 786-0 renal
A498 renal = test system: A498 renal
A549 NSCLC = test system: A549 NSCLC
ACHN renal = test system: ACHN renal
BT-549 breast = test system: BT-549 breast
CAKI-1 renal = test system: CAKI-1 renal
CCRF-CEM leukemia = test system: CCRF-CEM leukemia
COLO 205 colon = test system: COLO 205 colon
DU-145 prostate = test system: DU-145 prostate
EKVX NSCLC = test system: EKVX NSCLC
HCC-2998 colon = test system: HCC-2998 colon
HCT-116 colon = test system: HCT-116 colon
HCT-15 colon = test system: HCT-15 colon
HL-60(TB) leukemia = test system: HL-60(TB) leukemia
HOP-62 NSCLC = test system: HOP-62 NSCLC
HOP-92 NSCLC = test system: HOP-92 NSCLC
HS 578T breast = test system: HS 578T breast
HT29 colon = test system: HT29 colon
IGROV1 ovarian = test system: IGROV1 ovarian
K-562 leukemia = test system: K-562 leukemia
KM12 colon = test system: KM12 colon
LOX IMVI melanoma = test system: LOX IMVI melanoma
M14 melanoma = test system: M14 melanoma
MALME-3M melanoma = test system: MALME-3M melanoma
MCF7 breast = test system: MCF7 breast
MDA-MB-231 breast = test system: MDA-MB-231 breast
MDA-MB-435 = test system: MDA-MB-435
MDA-MB-468 breast = test system: MDA-MB-468 breast
MOLT-4 leukemia = test system: MOLT-4 leukemia
NCI-H226 lung = test system: NCI-H226 lung
NCI-H23 lung = test system: NCI-H23 lung
NCI-H460 lung = test system: NCI-H460 lung
NCI-H522 lung = test system: NCI-H522 lung
NCI/ADR-RES ovarian = test system: NCI/ADR-RES ovarian
OVCAR-3 ovarian = test system: OVCAR-3 ovarian
OVCAR-4 ovarian = test system: OVCAR-4 ovarian
OVCAR-5 ovarian = test system: OVCAR-5 ovarian
OVCAR-8 ovarian = test system: OVCAR-8 ovarian
PC-3 prostate = test system: PC-3 prostate
RPMI-8226 leukemia = test system: RPMI-8226 leukemia
RXF 393 renal = test system: RXF 393 renal
SF-268 CNS = test system: SF-268 CNS
SF-295 CNS = test system: SF-295 CNS
SF-539 CNS = test system: SF-539 CNS
SK-MEL-2 melanoma = test system: SK-MEL-2 melanoma
SK-MEL-28 melanoma = test system: SK-MEL-28 melanoma
SK-MEL-5 melanoma = test system: SK-MEL-5 melanoma
SK-OV-3 ovarian = test system: SK-OV-3 ovarian
SN12C renal = test system: SN12C renal
SNB-19 CNS = test system: SNB-19 CNS
SNB-75 CNS = test system: SNB-75 CNS
SR leukemia = test system: SR leukemia
SW-620 colon = test system: SW-620 colon
T-47D breast = test system: T-47D breast
TK-10 renal = test system: TK-10 renal
U251 CNS = test system: U251 CNS
UACC-257 melanoma = test system: UACC-257 melanoma
UACC-62 melanoma = test system: UACC-62 melanoma
UO-31 renal = test system: UO-31 renal

CC(Nc1ncnc2ccc(-c3ccc4oc(N)nc4c3)cc12)c1ccccc1 (stereo not drawn)
GI50 (786-0 renal): 2.19 µM | TGI (786-0 renal): 8.59 µM | GI50 (A498 renal): 2.3 µM | TGI (A498 renal): 17.3 µM | GI50 (A549 NSCLC): 2.75 µM | TGI (A549 NSCLC): 18.2 µM | GI50 (ACHN renal): 1.84 µM | TGI (ACHN renal): 4.92 µM | GI50 (BT-549 breast): 2.62 µM | TGI (BT-549 breast): 11.3 µM | GI50 (CAKI-1 renal): 3.52 µM | TGI (CAKI-1 renal): 17.1 µM | GI50 (CCRF-CEM leukemia): 2.34 µM | TGI (CCRF-CEM leukemia): 10.2 µM | GI50 (COLO 205 colon): 5.3 µM | TGI (COLO 205 colon): > 100 µM | GI50 (DU-145 prostate): 2.91 µM | TGI (DU-145 prostate): 15.6 µM | GI50 (EKVX NSCLC): 2.73 µM | TGI (EKVX NSCLC): 18.5 µM | GI50 (HCC-2998 colon): 3.59 µM | TGI (HCC-2998 colon): 15.8 µM | GI50 (HCT-116 colon): 2.06 µM | TGI (HCT-116 colon): 4.78 µM | GI50 (HCT-15 colon): 2.85 µM | TGI (HCT-15 colon): 11.7 µM | GI50 (HL-60(TB) leukemia): 1.87 µM | TGI (HL-60(TB) leukemia): 5 µM | GI50 (HOP-62 NSCLC): 1.63 µM | TGI (HOP-62 NSCLC): 4.68 µM | GI50 (HOP-92 NSCLC): 2.02 µM | TGI (HOP-92 NSCLC): 5.62 µM | GI50 (HS 578T breast): 2.04 µM | TGI (HS 578T breast): 5.86 µM | GI50 (HT29 colon): 4.94 µM | TGI (HT29 colon): > 100 µM | GI50 (IGROV1 ovarian): 1.45 µM | TGI (IGROV1 ovarian): 3.75 µM | GI50 (K-562 leukemia): 3.89 µM | TGI (K-562 leukemia): 15.5 µM | GI50 (KM12 colon): 4.27 µM | TGI (KM12 colon): 29 µM | GI50 (LOX IMVI melanoma): 1.62 µM | TGI (LOX IMVI melanoma): 3 µM | GI50 (M14 melanoma): 4.97 µM | TGI (M14 melanoma): 42.4 µM | GI50 (MALME-3M melanoma): 1.7 µM | TGI (MALME-3M melanoma): 3.44 µM | GI50 (MCF7 breast): 1.59 µM | TGI (MCF7 breast): 3.57 µM | GI50 (MDA-MB-231 breast): 2.59 µM | TGI (MDA-MB-231 breast): 6.92 µM | GI50 (MDA-MB-435): 3.84 µM | TGI (MDA-MB-435): 19.5 µM | GI50 (MDA-MB-468 breast): 1.07 µM | TGI (MDA-MB-468 breast): 2.8 µM | GI50 (MOLT-4 leukemia): 2.67 µM | TGI (MOLT-4 leukemia): 10.4 µM | GI50 (NCI-H226 lung): 1.87 µM | TGI (NCI-H226 lung): 6.21 µM | GI50 (NCI-H23 lung): 3.53 µM | TGI (NCI-H23 lung): 14.5 µM | GI50 (NCI-H460 lung): 2.34 µM | TGI (NCI-H460 lung): 5.91 µM | GI50 (NCI-H522 lung): 2.83 µM | TGI (NCI-H522 lung): 13.4 µM | GI50 (NCI/ADR-RES ovarian): 3.1 µM | TGI (NCI/ADR-RES ovarian): 11.5 µM | GI50 (OVCAR-3 ovarian): 1.67 µM | TGI (OVCAR-3 ovarian): 3.35 µM | GI50 (OVCAR-4 ovarian): 2.14 µM | TGI (OVCAR-4 ovarian): 5.16 µM | GI50 (OVCAR-5 ovarian): 3.49 µM | TGI (OVCAR-5 ovarian): 18.7 µM | GI50 (OVCAR-8 ovarian): 2.96 µM | TGI (OVCAR-8 ovarian): 12.6 µM | GI50 (PC-3 prostate): 4.52 µM | TGI (PC-3 prostate): 17.1 µM | GI50 (RPMI-8226 leukemia): 2.47 µM | TGI (RPMI-8226 leukemia): 13.3 µM | GI50 (RXF 393 renal): 1.98 µM | TGI (RXF 393 renal): 5.87 µM | GI50 (SF-268 CNS): 3.91 µM | TGI (SF-268 CNS): 54.7 µM | GI50 (SF-295 CNS): 2.82 µM | TGI (SF-295 CNS): 12.9 µM | GI50 (SF-539 CNS): 1.91 µM | TGI (SF-539 CNS): 4.78 µM | GI50 (SK-MEL-2 melanoma): 19.5 µM | TGI (SK-MEL-2 melanoma): 41.7 µM | GI50 (SK-MEL-28 melanoma): 3.54 µM | TGI (SK-MEL-28 melanoma): 15.1 µM | GI50 (SK-MEL-5 melanoma): 2.15 µM | TGI (SK-MEL-5 melanoma): 5.88 µM | GI50 (SK-OV-3 ovarian): 2.65 µM | TGI (SK-OV-3 ovarian): 8.56 µM | GI50 (SN12C renal): 2.4 µM | TGI (SN12C renal): 7.26 µM | GI50 (SNB-19 CNS): 3.13 µM | TGI (SNB-19 CNS): 14.6 µM | GI50 (SNB-75 CNS): 1.45 µM | TGI (SNB-75 CNS): 3.61 µM | GI50 (SR leukemia): 2.9 µM | TGI (SR leukemia): 10.3 µM | GI50 (SW-620 colon): 4.42 µM | TGI (SW-620 colon): 18.9 µM | GI50 (T-47D breast): 4.06 µM | TGI (T-47D breast): 26 µM | GI50 (TK-10 renal): 1.57 µM | TGI (TK-10 renal): 5.51 µM | GI50 (U251 CNS): 2.8 µM | TGI (U251 CNS): 11.6 µM | GI50 (UACC-257 melanoma): 5.23 µM | TGI (UACC-257 melanoma): 39.5 µM | GI50 (UACC-62 melanoma): 3.26 µM | TGI (UACC-62 melanoma): 11.8 µM | GI50 (UO-31 renal): 1.37 µM | TGI (UO-31 renal): 4.16 µM

Source: PubChem BioAssay (NCI)
